Four molecules from ChEMBL document CHEMBL1201862, “PubChem BioAssay data set” (2004) can be followed below.

Test in all cases: growth of human tumour cells (NCI), 48 h
The subject of assay [1] is CCRF-CEM.
Assay [2] has as its system OVCAR-5.
In assay [3] the test system is EKVX.
Assay [4] relates to HOP-62.
Assay [5] deals with M14.
Assay [6] deals with NCI-H226.
Assay [7] deals with HOP-92.
The subject of assay [8] is MOLT-4.
The test system of assay [9] is HCT-116.
The test system of assay [10] is NCI-H460.
Assay [11] deals with SR.
The test system of assay [12] is TK-10.
For assay [13], the system named is IGROV-1.
Assay [14] concerns MCF7.
The test system of assay [15] is SF-268.
Assay [16] deals with SF-539.
For assay [17], the system named is HCT-15.
Assay [18] concerns PC-3.
Assay [19] deals with ACHN.
For assay [20], the system named is SNB-19.

Molecules are shown by their SMILES.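 Interpolation was linear, between the two tested concentrations surrounding the appropriate level; five concentrations were tested over 48 hours in 96-well plates. Abbreviation: GI50, concentration required for 50% inhibition of growth.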 Active and inactive are the calls of the source. Cut-off read from the data, not from the text of the source: active = GI50 up to about 1.1 µM and inactive = higher. A value given as a limit tells only on which side of the number the result lay.

For the molecule `CCn1c2nc(=O)n(CCCCCCCCSC(c3ccccc3)(c3ccccc3)c3ccccc3)c(=O)c-2nc2ccccc21`, the GI50 in assay [1] was 1.43 µM (inactive); in [2], > 100 µM (inactive); in assay [3] it was 7.83 µM (inactive); in assay [4], 27.5 µM (inactive); in assay [5] it was 8.61 µM (inactive); in assay [6], > 100 µM (inactive). In addition, the GI50 in [7] is 15.5 µM (inactive); in [8] it was 2.9 µM (inactive); in assay [9], 3.7 µM (inactive); in assay [10] it was 4.62 µM (inactive); in assay [11], 2.61 µM (inactive); in assay [12], 43.9 µM (inactive). Besides, the GI50 in [13] is 31.3 µM (inactive); in assay [14] it was 6.19 µM (inactive); in assay [15], 4.08 µM (inactive); in assay [16], 64.3 µM (inactive); in [17] it was 8.38 µM; in assay [18], 4.9 µM (inactive). The GI50 in assay [19] was 3.21 µM (inactive).

For `O=c1oc2ccc(Cl)cc2cc1-c1cn2ccccc2n1`, the GI50 in [1] is > 81.3 µM (inactive); in [2], 57.5 µM (inactive); in assay [3], 28.8 µM (inactive); in assay [4] it was 3.67 µM (inactive); in assay [5], > 66.7 µM (inactive); in assay [6], 20.9 µM (inactive). Further, the GI50 in assay [7] was 21.9 µM (inactive); in [8] it was > 100 µM (inactive); in assay [9], 6.64 µM (inactive); in [10] it was 14.6 µM (inactive); in [11], 32.9 µM (inactive); in assay [12], 14.8 µM (inactive). The GI50 is 29.2 µM (inactive) in assay [13]; 24.5 µM (inactive) in assay [14]; > 39.8 µM (inactive) in assay [15]; 8.09 µM (inactive) in assay [16]; more than 100 µM in assay [17]; > 72.9 µM (inactive) in assay [18]. In addition, the GI50 in assay [19] is 2.64 µM (inactive).

Turning to `CCOC(=O)c1cn2c(ccc3sc4ccccc4c(=O)c32)n1`, the GI50 in [1] was > 100 µM (inactive); in assay [2] it was > 100 µM (inactive); in assay [3], > 100 µM (inactive); in [4] it was > 100 µM (inactive); in [6], > 100 µM (inactive); in [7] it was 87.5 µM (inactive). Besides, the GI50 in assay [8], in [9], in [10], in [11], in assay [12] and in assay [13] was > 100 µM (inactive) each time. In addition, the GI50 is 84.3 µM (inactive) in assay [14]; > 100 µM (inactive) in assay [15]; > 100 µM (inactive) in assay [16]; more than 100 µM in assay [17]; > 100 µM (inactive) in assay [18]; > 100 µM (inactive) in assay [19]. Also, the GI50 in assay [20] is > 100 µM (inactive).

As to `O=C1C=C2S[C@H]3C[C@]2(C=C1Br)C1=C(N3)C(=O)c2[nH]cc3c2C1=NCC3` [(+)-DISCORHABDIN B], the GI50 in [1] was 0.234 µM (active); in assay [2], 1.85 µM (inactive); in assay [3], 1.68 µM (inactive); in [5], 0.726 µM (active); in [6], 2.24 µM (inactive); in assay [7], 0.973 µM (active). The GI50 in [8] is 0.148 µM (active); in assay [9] it was 0.103 µM (active); in [10] it was 3.05 µM (inactive); in assay [11] it was 2.69 µM (inactive); in assay [12] it was 1.4 µM (inactive); in [13], 1.53 µM (inactive). The GI50 in assay [14] was 0.52 µM (active); in [15], 1.54 µM (inactive); in assay [16], 1.63 µM (inactive); in [17], 0.745 µM; in assay [18], 1.83 µM (inactive); in [19], 0.632 µM (active). In [20], the GI50 was 12.4 µM (inactive).
